US9458100B2, “Synthesis and growth regulatory activity of a prototype member of a new family of aminothiol radioprotectors” (Wisconsin Alumni Research Foundation, priority 2012, dated 2016)
Where two headings read alike, the source gives them in different places. Marks after values point to notes of the source that are not given here.

Key:
ferret = assay: Ferret retch/emesis model; assay type: in vivo
mouse [1] = conditions: intraperitoneal; published value; cited from earlier work
mouse [2] = assay: Systemic toxicity, maximum tolerated dose in mouse; assay type: in vivo; conditions: for Mouse IP MTD: intraperitoneal
Procedure: (§1) During the development of embodiments of the technology provided herein, embodiments of compounds described herein and/or encompassed by the synthetic schemes were tested for systemic toxicity and radioprotection in mouse and rat models (Table 2). Toxic doses are shown as the “maximum tolerated dose” (“MTD”) for intraperitoneal (IP), oral, and subcutaneous (SC) administration routes in Table 2.
(§2) Doses expressed as a fraction of “MTD” are expressed as a fraction of the “maximum tolerated dose”. Doses expressed in units of ug/g correspond to micrograms of the compound per gram of body weight.

[3] = tested on: mice exposed to whole-body radiation; assay: Mouse survival after whole-body radiation (systemic radioprotection); assay type: in vivo; conditions: for Mouse % Survival: 8.63 Gy whole-body radiation
Procedure: Exposure of a control mouse to the same dose of radiation in the absence of PrC-210 administration (e.g., a water-only control) is 100% lethal (FIG. 4, “IP Water”). Each treatment group contained 20 mice. The dose of PrC-210 was 252 μg/g body weight.
In additional experiments, female ICR mice received 200 μl doses (e.g., 900 μg/g body weight) of PrC-210 dissolved in water by gavage at the indicated times prior to irradiation (See FIG. 6). At 0 min, mice were irradiated with 9.0 Gy of whole-body radiation in a CS^137 irradiator. Mice were returned to housing and their weights and survival were monitored for the next 60 days. There were six mice in each of the treatment groups.
[…] Survival rates greater than the 0% Survival seen in the vehicle control group were attributed to systemic radioprotection conferred by the systemically administered radioprotector molecule.

[4] = Biodistribution of intravenous bolus of 14C PrC-210 in rat; assay type: in vivo
Procedure: During the development of embodiments of the technology provided herein, experiments were conducted to test the biodistribution of an intravenous bolus dose of radiolabeled (e.g., ^14C) PrC-210 in a rat host. In these experiments, an intravenous bolus of 100 μCi of ^14C PrC-210 was administered into an indwelling catheter in a 300 g rat.

[5] = tested on: rats exposed to whole-body radiation; assay: Rat survival after whole-body radiation (oral radioprotection); assay type: in vivo
Procedure: Female Sprague-Dawley rats received 200 μl doses of PrC-210 dissolved in water by gavage a time of 60 minutes prior to irradiation (time=−60 min). […] Rats were returned to housing and their weights and survival were monitored for the next 60 days. There were six rats in each of the treatment groups. As shown by FIG. 5, oral PrC-210 confers 100% protection against an otherwise 100% lethal dose of whole-body radiation.

rat [6] = assay: Rat aortic blood pressure monitoring (hypotension side effect); assay type: in vivo; conditions: anesthetized rats, intraperitoneal injection
Procedure: Blood pressure was monitored in the aortic artery of rats using a high-fidelity pressure transducer. Rats were continually anesthetized with 2% isofluorane, and drug doses were administered by intraperitoneal injection. Rats received intraperitoneal saline injections until these injections induced no change in monitored blood pressure. Indicated doses of PrC-210 or amifostine (FIG. 8) were administered and changes in blood pressure and heart rate were recorded. A condensed summary of drug-induced changes for all cannulated rats is shown in panel C. Doses of epinephrine (Epi; hypertensive) were also recurrently admininesterod to test if previous PrC-210 or amifostine doses could be modified.

rat [7] = assay: Systemic toxicity, maximum tolerated dose in rat; assay type: in vivo
Procedure: as §1, §2

[8] = tested on: radiation dermatitis in rat skin; assay: Rat radiation dermatitis assay with topical application before irradiation; assay type: in vivo; conditions: topical in ethanol/water vehicle four times in the 2 h before 17.33 Gy; scored 13 days later
Procedure: To determine if PrC-210 could function as a topical radioprotector that could prevent radiation dermatitis when applied prior to a cancer patient's daily radiotherapy, a rat assay that realistically mimics human radiation dermatitis was created. This assay quantifies the severity of radiation dermatitis in rat skin 13 days after a single radiation dose of 17.33 Gy. In this study, PrC-210 was applied to rat skin in an ethanol/water delivery vehicle four times in the 2 h before irradiation, and control rats received only topical vehicle before irradiation (FIG. 2). Additional drug/irradiation groups of three rats each received either the alkyl-thiol moiety or the alkyldiamine moiety from PrC-210 in the same delivery vehicle. Following the 17.33 Gy irradiation of a […] patch of dorsal skin on the rats' backs, rats were scored 13 days later.
Molecules were applied to skin in an alcohol/water delivery vehicle prior to receiving a 17.33 Gy radiation dose to the 1.5 cm×3.0 cm skin site. Radiation dermatitis severity (e.g., % of the site covered by scab material) was scored 13 days following irradiation.

NCCCNCCSP(=O)(O)O [Amifostine, amifostine, reference compound]
retch/emesis responses (ferret; in vivo): caused retch/emesis responses in each of the four ferrets tested | Mouse IP MTD (mouse [1]): 800^c μg/g b.w. | Mouse IP MTD (mouse [2]): 760^d μg/g b.w. | Mouse % Survival ([3]; at IP 0.5 MTD: 400 ug/g): 88%

CN(C)C(=O)C(CCN1CCC(O)(c2ccc(Cl)cc2)CC1)(c1ccccc1)c1ccccc1 [Loperamide]
retch/emesis responses (ferret; ferret equivalent of highest human dose, loperamide as positive control 14 days later): robust retch/emesis response in each of the 14 ferrets

CNCC(CNC)CSSCC(CNC)CNC [PrC-210 Disulfide]
Mouse IP MTD (mouse [2]): 155 μg/g b.w. | Mouse % Survival ([3]; at IP 0.5 MTD: 78 ug/g): <5% | Mouse % Survival ([3]; at IP 0.9 MTD: 140 ug/g): 37%

CNCC(CS)CNC [PrC-210, 3-(methyl-amino)-2-((methylamino)methyl)propane-1-thiol]
retch/emesis responses (ferret; in vivo): zero retching or emesis responses | Mouse IP MTD (mouse [2]; determined using best fit analysis of survival data): 422^b μg/g b.w. | Mouse IP MTD (mouse [2]; determined using probit analysis of survival data): 504^a μg/g b.w. | Mouse ORAL MTD (mouse [2]; oral): 1780 μg/g b.w. | Mouse SC MTD (mouse [2]; subcutaneous): 431 μg/g b.w. | Recovery (carcass) ([4]; 100 uCi IV): 6.89% | Cmax ([4]; 100 uCi IV 14C PrC-210): 21,400 ng-eq/g | Tmax ([4]; 100 uCi IV 14C PrC-210): 30 min | Recovery2 (systemic) ([4]; 100 uCi IV, excreta + carcass): 81.23% | Recovery3 (total) ([4]; 100 uCi IV, systemic + skin + cage wash + cage wipe + enclosure): 84.20% | Recovery1 (excreta) ([4]; 100 uCi IV, urine + urine wipes + feces): 74.34% | administered radioactivity eliminated via feces ([4]; intravenous 14C PrC-210): approximately 10% | administered radioactivity eliminated via urine ([4]; intravenous 14C PrC-210): approximately 50% | Rat % Survival ([5]; at ORAL 0.5 MTD: 900 ug/g, 9.5 Gy whole-body radiation): 100% (at ORAL 0.5 MTD: 900 ug/g) | protection against otherwise 100% lethal whole-body radiation ([5]; female Sprague-Dawley rats, oral gavage 60 minutes prior, monitored 60 days): 100% | hypotension side effects (rat [6]): does not cause hypotension side effects | Mouse % Survival ([3]; at IP 0.5 MTD: 211 ug/g): 98% | Mouse % Survival ([3]; at IP 0.5 MTD: 252 ug/g): 100% | Mouse % Survival ([3]; at ORAL 0.87 MTD: 1550 ug/g (only dose tested)): 100% | protection against otherwise 100% lethal whole-body radiation ([3]; female ICR mice, oral 900 μg/g body weight, 60 minutes before 9.0 Gy): 100% | survival ([3]; mouse, IP 252 μg/g body weight, 30 minutes before 8.75 Gy whole-body radiation): 100% | Rat IP MTD (rat [7]; intraperitoneal): 485 μg/g b.w. | Rat ORAL MTD (rat [7]; oral): 1974 μg/g b.w. | prevention of radiation dermatitis [8]: completely prevent radiation dermatitis

NCC(CN)CS [PrC-211]
Mouse IP MTD (mouse [2]): 475 μg/g b.w. | Mouse % Survival ([3]; at IP 0.25 MTD: 118 ug/g): 37% | Mouse % Survival ([3]; at IP 0.5 MTD: 238 ug/g): 47% | Mouse % Survival ([3]; at IP 0.9 MTD: 427 ug/g): 100%
